Calls of active or inactive are those of the source. No cut-off for these calls is given here.
Columns and labels:
[1] = species: Homo sapiens; assay: Inhibition of recombinant human RAD51/p53 (unknown origin) interaction at 200 uM measured by ELISA assay
[2] = target: T1, DNA repair protein RAD51 homolog 1 (Homo sapiens) (UniProt Q06609); assay: Inhibition of RAD51 in human U2OS cells at 20 to 80 uM measured by direct repeats green fluorescent protein (DR-GFP) reporter assay; format: cell-based; conditions: dose 20-80 µM
T1 sequence (whole entry): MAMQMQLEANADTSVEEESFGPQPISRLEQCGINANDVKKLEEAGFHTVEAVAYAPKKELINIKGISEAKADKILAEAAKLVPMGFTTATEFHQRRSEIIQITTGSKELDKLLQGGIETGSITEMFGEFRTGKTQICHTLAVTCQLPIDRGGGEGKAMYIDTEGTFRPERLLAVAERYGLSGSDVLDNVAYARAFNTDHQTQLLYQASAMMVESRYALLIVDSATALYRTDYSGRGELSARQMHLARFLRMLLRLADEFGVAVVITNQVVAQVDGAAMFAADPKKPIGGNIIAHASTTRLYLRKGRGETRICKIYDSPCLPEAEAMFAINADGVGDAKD

Row | Structure (SMILES) | inhibition [1] | inhibition [2]
1 | C[C@@H]1Cc2ccccc2N1C(=O)COc1ccc(N(C)S(=O)(=O)c2ccccc2)cc1 | Active | Active
2 | Cc1c(F)cc(C(N)=O)cc1NC(=O)c1cccc(S(=O)(=O)Nc2ccccc2F)c1 | Active | 
3 | Nc1ncnc2c1ncn2[C@@H]1O[C@H](COP(=O)(O)OP(=O)(O)OP(=O)(O)O)[C@@H](O)[C@H]1O | Active | 
4 | Cc1cc(C)c(CNC(=O)c2cccc(S(=O)(=O)N3C[C@H](C)C[C@@H](C)C3)c2)c(=O)[nH]1 | Active | 
5 | Cc1ccc(-n2nnnc2SCC(=O)Nc2oc(C)c3c(C)n[nH]c(=O)c23)c(C)c1 | Active | Active
6 | Nc1ncnc2c1ncn2[C@@H]1O[C@H](COP(=O)(O)OP(=O)(O)NP(=O)(O)O)[C@@H](O)[C@H]1O | Active | 
